Test results as given in ChEMBL document CHEMBL1671791, “Electron paramagnetic resonance (EPR) study of spin-labeled camptothecin derivatives: a different look of the ternary complex” (J Med Chem, 2011).
The source made the active and inactive calls. The calls are words filed in the database; no cut-off is given here.

Assays:
[1] = target: T1, DNA topoisomerase 1 (Homo sapiens) (UniProt P11387); assay: Inhibition of human recombinant DNA topoisomerase 1-mediated DNA cleavage at 0.1 to 100 uM after 20 mins
T1 sequence (whole entry): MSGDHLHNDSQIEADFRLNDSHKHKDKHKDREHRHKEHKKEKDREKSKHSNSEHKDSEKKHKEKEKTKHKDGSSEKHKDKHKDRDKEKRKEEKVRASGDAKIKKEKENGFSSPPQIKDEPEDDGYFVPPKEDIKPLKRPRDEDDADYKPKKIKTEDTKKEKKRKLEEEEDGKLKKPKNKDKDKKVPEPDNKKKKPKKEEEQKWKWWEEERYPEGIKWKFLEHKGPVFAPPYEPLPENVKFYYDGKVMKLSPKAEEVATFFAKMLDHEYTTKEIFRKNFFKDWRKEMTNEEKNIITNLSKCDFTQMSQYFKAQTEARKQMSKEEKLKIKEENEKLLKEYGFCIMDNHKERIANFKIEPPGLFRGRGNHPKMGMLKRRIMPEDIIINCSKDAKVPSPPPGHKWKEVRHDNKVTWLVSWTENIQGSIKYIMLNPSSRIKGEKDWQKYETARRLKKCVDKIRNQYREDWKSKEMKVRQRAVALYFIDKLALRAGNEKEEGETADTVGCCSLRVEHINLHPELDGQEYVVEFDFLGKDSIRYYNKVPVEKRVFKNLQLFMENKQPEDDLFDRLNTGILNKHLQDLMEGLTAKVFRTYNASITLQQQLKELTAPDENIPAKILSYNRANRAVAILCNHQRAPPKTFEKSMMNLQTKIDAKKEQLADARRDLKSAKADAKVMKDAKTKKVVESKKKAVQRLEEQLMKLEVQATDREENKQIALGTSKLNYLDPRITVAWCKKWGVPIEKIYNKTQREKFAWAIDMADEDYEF

[2] = target: T1, DNA topoisomerase 1 (Homo sapiens); assay: Reversible inhibition of human recombinant DNA topoisomerase 1-mediated DNA cleavage at 0.1 to 100 uM after 20 mins
[3] = target: T1, DNA topoisomerase 1 (Homo sapiens); assay: Binding affinity to human recombinant DNA topoisomerase 1 at 20 uM by electron paramagnetic resonance analysis

Row | inhibition [1] | inhibition [2] | Activity [3] | Structure (SMILES)
1 | Active | – | – | CC[C@@]1(O)C(=O)OCc2c1cc1n(c2=O)Cc2c-1nc1ccccc1c2C(=O)NC1CC(C)(C)N([O])C(C)(C)C1
2 | Active | Active | Active | CC[C@@]1(O)C(=O)OCc2c1cc1n(c2=O)Cc2c-1nc1ccccc1c2/C=N/C1CC(C)(C)N([O])C(C)(C)C1
